For the test, the target named is Porcine pancreatic elastase (PPE) (Sus scrofa, UniProt P00772). Kind of test: Porcine pancreatic elastase (PPE) enzyme inhibitory assay. It is filed as biochemical. Particulars: for Average % inhibition: average of three; for Inhibition Rate (%): single determination. The method, then: The elastase inhibitory activity of certain plant extracts was evaluated in vitro using Porcine pancreatic elastase (PPE) enzyme inhibitory assay as described by Cannel et al. (1988) with some modifications. The assay was performed in 0.2 M Tris-HCL buffer (pH 8.0). Porcine pancreatic elastase was dissolved to make a 100 unit stock solution in sterile water. The substrate N-Succinyl-Ala-Ala-Ala-p-nitroanilide (AAAPVN) was dissolved in buffer. The plant extracts were incubated with the enzyme for 25 minutes before adding the substrate to begin the reaction. […] EGCG was used as a positive control, and tris-HCl was used as the blank.
Maximum Velocities (Vmax) were taken at a wavelength of 410 nm for 25 minutes at 30 second intervals. Percentage inhibitions were calculated by the following equation: […]
where Vmax(sample) is the velocity of the sample extracts and Vmax(control) is the velocity of the assay using the buffer instead of inhibitor (sample).

“And” between values parts separate entries of the source, which are not always exact repeats. Equal entries are not always repeated.

Chain of Porcine pancreatic elastase (PPE) (P00772 27-266): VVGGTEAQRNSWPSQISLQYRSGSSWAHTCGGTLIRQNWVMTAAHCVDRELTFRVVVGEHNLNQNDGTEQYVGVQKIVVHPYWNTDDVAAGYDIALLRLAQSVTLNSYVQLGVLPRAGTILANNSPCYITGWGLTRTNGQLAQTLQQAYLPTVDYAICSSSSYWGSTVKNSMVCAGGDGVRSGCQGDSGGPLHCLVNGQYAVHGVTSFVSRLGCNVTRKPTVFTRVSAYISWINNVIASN

In the case of `O=C(O[C@@H]1Cc2c(O)cc(O)cc2O[C@@H]1c1cc(O)c(O)c(O)c1)c1cc(O)c(O)c(O)c1` [EGCG, epigallocatechin gallate], the Average % inhibition (31.25 μg/ml) was 4.80%; the Average % inhibition (62.5 μg/ml) turned out to be 15.57%; the Average % inhibition (125 μg/ml) worked out at 36.25%; the Average % inhibition (250 μg/ml) worked out at 41.56%; the Average % inhibition (500 μg/ml) turned out to be 43.47%; the Average % inhibition (1000 μg/ml) is given as 48.97%. For the same compound, the Average % inhibition (2000 μg/ml) is 52.78%. Also, the “Inhibition Rate (%)” value was 6.76% and 1.06% and 6.58% (31.25 μg/ml); 20.43% and 14.78% and 11.52% (62.5 μg/ml); 39.69% and 35.13% and 33.94% (125 μg/ml); 45.23% and 41.13% and 38.32% (250 μg/ml); 45.20% and 41.64% and 43.58% (500 μg/ml); 49.48% and 47.89% and 49.56% (1000 μg/ml). In addition, under “2000 μg/ml”, the “Inhibition Rate (%)” value is 52.32% and 52.75% and 53.28%.
